Results on 29 compounds are retold here after patent US8822503B2, “2-pyridone compounds” (Taisho Pharmaceutical Co., Ltd, priority 2009, dated 2014).

The structures appear in SMILES notation.

In the assay the target is T1, human liver GK (Homo sapiens, UniProt P35557).
T1 construct: GST (glutathione S-transferase) (N); made in house; host or cells: E. coli
T1 sequence (P35557 1-466 isoform P35557-2): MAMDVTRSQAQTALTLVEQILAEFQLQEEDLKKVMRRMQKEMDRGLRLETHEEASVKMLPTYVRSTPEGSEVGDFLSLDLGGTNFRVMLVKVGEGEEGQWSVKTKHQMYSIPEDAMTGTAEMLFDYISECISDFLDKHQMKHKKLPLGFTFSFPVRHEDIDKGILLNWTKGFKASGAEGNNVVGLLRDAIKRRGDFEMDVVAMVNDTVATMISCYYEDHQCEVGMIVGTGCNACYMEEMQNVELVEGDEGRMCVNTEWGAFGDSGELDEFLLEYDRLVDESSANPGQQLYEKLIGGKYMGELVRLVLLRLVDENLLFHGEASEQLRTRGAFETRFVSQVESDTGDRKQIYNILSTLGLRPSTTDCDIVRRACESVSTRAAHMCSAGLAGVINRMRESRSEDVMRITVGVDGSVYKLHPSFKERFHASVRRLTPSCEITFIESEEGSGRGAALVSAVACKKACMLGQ
The assay can be described thus: GK activation test. The class given is biochemical. As to conditions: test compound concentration needed to activate 50% of maximum activation ability; 4 mM 14C-labeled glucose, 2 mM ATP, room temperature, 20 minutes. Summed up:
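GST-tagged human liver GK from E. coli (0.24 μg/well) with 4 mM 14C-glucose, 2 mM ATP in Hepes-KOH pH 7.1, KCl, MgCl2, DTT, 1% DMSO, 20 min room temperature. Labeled glucose 6-phosphate captured on anion resin, eluted and counted. EC50 = concentration giving half of maximal activation.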

For orientation: EC50 means the concentration at which the effect is half-maximal. A higher EC50 goes with lower potency in that assay. Compound `CCc1ccc(/C(=C/[C@H]2CCC(=O)C2)c2ccc(S(=O)(=O)CCCN(CC)CC)c(Cl)c2)[nH]c1=O` [Example 1-78, 6-{(E)-1-(3-Chloro-4-{[3-(diethylamino)propyl]sulfonyl}phenyl)-2-[(1S)-3-oxocyclopentyl]ethenyl}-3-ethylpyridin-2(1H)-one] displayed an EC50 of 10 to 500 nM.
`CCN(CC)CCCOc1ccc(/C(=C\[C@H]2CCC(=O)C2)c2ccc(C3CC3)c(=O)[nH]2)cc1Cl` [Example 1-79, 6-{(E)-1-{3-Chloro-4-[3-(diethylamino)propoxy]phenyl}-2-[(1S)-3-oxocyclopentyl]ethenyl}-3-cyclopropylpyridin-2(1H)-one] had an EC50 of 10 to 500 nM.
In turn, `CCN(CC)CCCCOc1ccc(/C(=C\[C@H]2CCC(=O)C2)c2ccc(C3CC3)c(=O)[nH]2)cc1Cl` [Example 1-80, 6-{(E)-1-{3-Chloro-4-[4-(diethylamino)butoxy]phenyl}-2-[(1S)-3-oxocyclopentyl]ethenyl}-3-cyclopropylpyridin-2(1H)-one] had an EC50 of 10 to 500 nM.
For `O=C1CC[C@H](/C=C(\c2ccc(OCCCO)c(Cl)c2)c2ccc(C(F)(F)F)c(=O)[nH]2)C1` [Example 1-81, 6-{(E)-1-[3-Chloro-4-(3-hydroxypropoxy)phenyl]-2-[(1S)-3-oxocyclopentyl]ethenyl}-3-(trifluoromethyl)pyridin-2(1H)-one] the value was 500 to 3000 nM; for `O=C1CC[C@H](/C=C(\c2ccc(SCCCO)c(Cl)c2)c2ccc(C(F)(F)F)c(=O)[nH]2)C1` [Example 1-82, 6-{(E)-1-{3-Chloro-4-[(3-hydroxypropyl)sulfanyl]phenyl}-2-[(1S)-3-oxocyclopentyl]ethenyl}-3-(trifluoromethyl)pyridin-2(1H)-one], 10 to 500 nM.
Compound `CCN(CC)CCCOc1ccc(/C(=C\[C@H]2CCC(=O)C2)c2ccc(C(F)(F)F)c(=O)[nH]2)cc1Cl` [Example 1-83, 6-{(E)-1-{3-Chloro-4-[3-(diethylamino)propoxy]phenyl}-2-[(1S)-3-oxocyclopentyl]ethenyl}-3-(trifluoromethyl)pyridin-2(1H)-one] had an EC50 of 500 to 3000 nM.
Take `CCN(CC)CCCSc1ccc(/C(=C\[C@H]2CCC(=O)C2)c2ccc(C(F)(F)F)c(=O)[nH]2)cc1Cl` [Example 1-84, 6-{(E)-1-(3-Chloro-4-{[3-(diethylamino)propyl]sulfanyl}phenyl)-2-[(1S)-3-oxocyclopentyl]ethenyl}-3-(trifluoromethyl)pyridin-2(1H)-one]: the EC50 fell in the range of 500 to 3000 nM.
As to `CSc1ccc(/C(=C\[C@H]2CCC(O)C2)c2ccc(C3CC3)c(=O)[nH]2)cc1Cl` (stereo partly drawn) [Example 1-85, 6-{(E)-1-[3-Chloro-4-(methylsulfanyl)phenyl]-2-[(1S)-3-hydroxycyclopentyl]ethenyl}-3-cyclopropylpyridin-2(1H)-one], the half-maximal effective concentration (EC50) lay within 10 to 500 nM.
For `CCN(CC)CCCOc1ccc(/C(=C\[C@H]2CCC(O)C2)c2ccc(C(F)(F)F)c(=O)[nH]2)cc1Cl` (stereo partly drawn) [Example 1-86, 6-{(E)-1-{3-Chloro-4-[3-(diethylamino)propoxy]phenyl}-2-[(1S)-3-hydroxycyclopentyl]ethenyl}-3-(trifluoromethyl)pyridin-2(1H)-one], the EC50 was 500 to 3000 nM.
For `CCN(CC)CCCOc1ccc(/C(=C\[C@H]2CCC(O)C2)c2ccc(C3CC3)c(=O)[nH]2)cc1Cl` (stereo partly drawn) [Example 1-87, 6-{(E)-1-{3-Chloro-4-[3-(diethylamino)propoxy]phenyl}-2-[(1S)-3-hydroxycyclopentyl]ethenyl}-3-cyclopropylpyridin-2(1H)-one] the value was 500 to 3000 nM; for `COc1ccc(/C(=C\[C@H]2CC[C@@H](O)CC2)c2ccc(C3CC3)c(=O)[nH]2)cc1Cl` [Example 1-88, 6-[(E)-1-(3-Chloro-4-methoxyphenyl)-2-(cis-4-hydroxycyclohexyl)ethenyl]-3-cyclopropylpyridin-2(1H)-one], 500 to 3000 nM; for `COc1ccc(/C(=C\[C@H]2CC[C@H](O)CC2)c2ccc(C3CC3)c(=O)[nH]2)cc1Cl` [Example 1-89, 6-[(E)-1-(3-Chloro-4-methoxyphenyl)-2-(trans-4-hydroxycyclohexyl)ethenyl]-3-cyclopropylpyridin-2(1H)-one], 500 to 3000 nM.
`O=c1[nH]c(/C(=C/[C@H]2CC[C@H](O)CC2)c2ccc(SC3CC3)cc2)ccc1C(F)(F)F` [Example 1-90, 6-[(E)-1-[4-(Cyclopropylsulfanyl)phenyl]-2-(trans-4-hydroxycyclohexyl)ethenyl]-3-(trifluoromethyl)pyridin-2(1H)-one] showed an EC50 of 10 to 500 nM.
`O=c1[nH]c(/C(=C/[C@H]2CC[C@H](O)CC2)c2ccc(S(=O)(=O)C3CC3)cc2)ccc1C(F)(F)F` [Example 1-91, 6-[(E)-1-[4-(Cyclopropylsulfonyl)phenyl]-2-(trans-4-hydroxycyclohexyl)ethenyl]-3-(trifluoromethyl)pyridin-2(1H)-one] came in with an EC50 of 500 to 3000 nM.
`CSc1ccc(/C(=C\CCO)c2ccc(C3CC3)c(=O)[nH]2)cc1` [Example 1-92, 3-Cyclopropyl-6-{(1E)-4-hydroxy-1-[4-(methylsulfanyl)phenyl]but-1-en-1-yl}pyridin-2(1H)-one]: the EC50 lay within 3000 to 10000 nM.
As to `CS(=O)(=O)c1ccc(/C(=C\CCO)c2ccc(C3CC3)c(=O)[nH]2)cc1` [Example 1-93, 3-Cyclopropyl-6-{(1E)-4-hydroxy-1-[4-(methylsulfonyl)phenyl]but-1-en-1-yl}pyridin-2(1H)-one], the 50% effective concentration (EC50) was in the range of 3000 to 10000 nM.
`CSc1ccc(/C(=C\CCNC(C)=O)c2ccc(C3CC3)c(=O)[nH]2)cc1` [Example 1-94, N-{(3E)-4-(5-Cyclopropyl-6-oxo-1,6-dihydropyridin-2-yl)-4-[4-(methylsulfanyl)phenyl]but-3-en-1-yl}acetamide] yielded an EC50 of 3000 to 10000 nM.
`CC(=O)NCC/C=C(\c1ccc(S(C)(=O)=O)cc1)c1ccc(C2CC2)c(=O)[nH]1` [Example 1-95, N-{(3E)-4-(5-Cyclopropyl-6-oxo-1,6-dihydropyridin-2-yl)-4-[4-(methylsulfonyl)phenyl]but-3-en-1-yl}acetamide] registered an EC50 of 3000 to 10000 nM.
With `CSc1ccc(/C(=C\CCCO)c2ccc(C3CC3)c(=O)[nH]2)cc1` [Example 1-96, 3-Cyclopropyl-6-{(1E)-5-hydroxy-1-[4-(methylsulfanyl)phenyl]pent-1-en-1-yl}pyridin-2(1H)-one], the 50% effective concentration (EC50) fell in the range of 500 to 3000 nM.
`CS(=O)(=O)c1ccc(/C(=C\CCCO)c2ccc(C3CC3)c(=O)[nH]2)cc1` [Example 1-97, 3-Cyclopropyl-6-{(1E)-5-hydroxy-1-[4-(methylsulfonyl)phenyl]pent-1-en-1-yl}pyridin-2(1H)-one] registered a half-maximal effective concentration (EC50) of 500 to 3000 nM.
`O=c1[nH]c(/C(=C/CCCO)c2ccc(SC3CC3)cc2)ccc1C(F)(F)F` [Example 1-98, 6-{(1E)-1-[4-(Cyclopropylsulfanyl)phenyl]-5-hydroxypent-1-en-1-yl}-3-(trifluoromethyl)pyridin-2(1H)-one] registered an EC50 of 3000 to 10000 nM.
For the compound `O=c1[nH]c(/C(=C/CCCO)c2ccc(S(=O)(=O)C3CC3)cc2)ccc1C(F)(F)F` [Example 1-99, 6-{(1E)-1-[4-(Cyclopropylsulfonyl)phenyl]-5-hydroxypent-1-en-1-yl}-3-(trifluoromethyl)pyridin-2(1H)-one], the EC50 fell in the range of 500 to 3000 nM.
For `Cc1ccc(/C(=C/C2(CO)CC2)c2ccc(S(=O)(=O)C3CC3)cc2)[nH]c1=O` [Example 1-100, 6-{(E)-1-[4-(Cyclopropylsulfonyl)phenyl]-2-[1-(hydroxymethyl)cyclopropyl]ethenyl}-3-methylpyridin-2(1H)-one] the value was 3000 to 10000 nM.
`C[C@@H](/C=C(\c1ccc(S(=O)(=O)C2CC2)cc1)c1ccc(C(F)(F)F)c(=O)[nH]1)CO` [Example 1-101, 6-{(1E,3S)-1-[4-(Cyclopropylsulfonyl)phenyl]-4-hydroxy-3-methylbut-1-en-1-yl}-3-(trifluoromethyl)pyridin-2(1H)-one] came in with an EC50 of 3000 to 10000 nM.
`C[C@H](/C=C(\c1ccc(S(=O)(=O)C2CC2)cc1)c1ccc(C(F)(F)F)c(=O)[nH]1)CO` [Example 1-102, 6-{(1E,3R)-1-[4-(Cyclopropylsulfonyl)phenyl]-4-hydroxy-3-methylbut-1-en-1-yl}-3-(trifluoromethyl)pyridin-2(1H)-one] showed an EC50 of 500 to 3000 nM.
The result for `O=c1[nH]c(/C(=C/C2CCCC2)c2ccc(SC3CC3)cc2)ccc1Cl` [Example 1-103, 3-Chloro-6-{(E)-2-cyclopentyl-1-[4-(cyclopropylsulfanyl)phenyl]ethenyl}pyridin-2(1H)-one] reads 10 to 500 nM.
`O=c1[nH]c(/C(=C/C2CCCC2)c2ccc(S(=O)(=O)C3CC3)cc2)ccc1Cl` [Example 1-104, 3-Chloro-6-{(E)-2-cyclopentyl-1-[4-(cyclopropylsulfonyl)phenyl]ethenyl}pyridin-2(1H)-one] returned an EC50 of 10 to 500 nM.
Take `CC(=O)Nc1ccc(/C(=C\C2CCCC2)c2ccc(Cl)c(=O)[nH]2)cc1` [Example 1-105, N-{4-[(E)-1-(5-Chloro-6-oxo-1,6-dihydropyridin-2-yl)-2-cyclopentylethenyl]phenyl}acetamide]: the EC50 lay within 500 to 3000 nM.
`NC(=O)Nc1ccc(/C(=C\C2CCCC2)c2ccc(Cl)c(=O)[nH]2)cc1` [Example 1-106, 1-{4-[(E)-1-(5-Chloro-6-oxo-1,6-dihydropyridin-2-yl)-2-cyclopentylethenyl]phenyl}urea] registered an EC50 of 500 to 3000 nM.
